From EP0615756B1 (priority 1993, dated 1994)
Where a name gives a salt, the structure may show the parent alone. Read-outs that look alike come from different tables or passages of the source.

Assays:
[1] = cited from earlier work
[2] = system: New Zealand white rabbits; assay: Paw pressure test; type: in vivo; settings: Figure 20
[3] = Plasma concentration after intramuscular injection (HPLC) in the paw pressure study; settings: for half-life: rabbit, plasma, im
Sprague-Dawley rats = assay: Rat cold ethanol tail-flick test; type: in vivo; settings: for % Analgesic effect 10% / % Analgesic effect 20% / % Analgesic effect 50%: 25 micromole per kg, intramuscularly
[4] = Percutaneous transport study in modified Franz diffusion cells; settings: 37 °C
[5] = Figure 15; between 17 and 28 hours, p<0.05
[6] = in sesame oil, duration in days
[7] = Anesthesiology, vol.74, 53, 1991

Compound: CN1CC[C@]23c4c5ccc(O)c4O[C@H]2[C@@H](O)C=C[C@H]3[C@H]1C5 [morphine]
- dose needed to elicit the same analgesic effect ([1]; in vivo): 10 mg

Compound: Oc1ccc2c3c1O[C@H]1[C@@H](O)CC[C@@]4(O)[C@@H](C2)N(CC2CCC2)CC[C@]314 [nalbuphine hydrochloride, reference compound]
- analgesic effect for intramuscular injection (duration) ([2]; 10 mg/kg): 45 min
- half-life [3]: 0.85 h
- % Analgesic effect 10% (Sprague-Dawley rats; duration in hours): 5.0 H
- % Analgesic effect 20% (Sprague-Dawley rats; duration in hours): 4.4 H
- % Analgesic effect 50% (Sprague-Dawley rats; duration in hours): 2.5 H
- 10% analgesic effect (Sprague-Dawley rats; rats, intramuscular injection): 2.4 h
- 20% analgesic effect (Sprague-Dawley rats; rats, intramuscular injection): 2.1 h
- 50% analgesic effect (Sprague-Dawley rats; rats, intramuscular injection, 25 micromole/kg): 1.1 h
- 10% analgesic effect (Sprague-Dawley rats; table 2): 12 h
- 50% analgesic effect (Sprague-Dawley rats; table 2): 2.5 h

Compound: CCC(=O)Oc1ccc2c3c1O[C@H]1[C@@H](O)CC[C@@]4(O)[C@@H](C2)N(CC2CCC2)CC[C@]314 [nalbuphine propionate]
- % Analgesic effect 10% (Sprague-Dawley rats; duration in hours): 12 H
- % Analgesic effect 20% (Sprague-Dawley rats; duration in hours): 11 H
- % Analgesic effect 50% (Sprague-Dawley rats; duration in hours): 10 H
- 50% analgesic effect (Sprague-Dawley rats; table 2): 10 h

Compound: CC(C)(C)C(=O)Oc1ccc2c3c1O[C@H]1[C@@H](O)CC[C@@]4(O)[C@@H](C2)N(CC2CCC2)CC[C@]314 [nalbuphine pivalate]
- % Analgesic effect 10% (Sprague-Dawley rats; [6]): 3.8 D
- % Analgesic effect 20% (Sprague-Dawley rats; [6]): 3.6 D
- % Analgesic effect 50% (Sprague-Dawley rats; [6]): 3.2 D

Compound: CCCCCCC(=O)Oc1ccc2c3c1O[C@H]1[C@@H](O)CC[C@@]4(O)[C@@H](C2)N(CC2CCC2)CC[C@]314 [nalbuphine enanthate]
- % Analgesic effect 10% (Sprague-Dawley rats; [6]): 3.6 D
- % Analgesic effect 20% (Sprague-Dawley rats; [6]): 3.4 D
- % Analgesic effect 50% (Sprague-Dawley rats; [6]): 3.0 D

Compound: O=C(Oc1ccc2c3c1O[C@H]1[C@@H](O)CC[C@@]4(O)[C@@H](C2)N(CC2CCC2)CC[C@]314)c1ccccc1 [nalbuphine benzoate]
- % Analgesic effect 10% (Sprague-Dawley rats; [6]): 4.0 D
- % Analgesic effect 20% (Sprague-Dawley rats; [6]): 4.0 D
- % Analgesic effect 50% (Sprague-Dawley rats; [6]): 3.5 D

Compound: CCCCCCCCCC(=O)Oc1ccc2c3c1O[C@H]1[C@@H](O)CC[C@@]4(O)[C@@H](C2)N(CC2CCC2)CC[C@]314 [nalbuphine decanoate]
- cumulative amount ([4]; under 24 hours, 5% nalbuphine decanoate in a jel of 2% CMC Na): 1.04±0.30 µ g/cm^2
- cumulative amount ([4]; under 24 hours, jell containing 10% terpineol (5% nalbuphine decanoate, 2% CMC Na)): 3.31±0.45 µg/cm^2
- cumulative amount ([4]; under 48 hours, 5% nalbuphine decanoate in a jel of 2% CMC Na): 1.67±0.38 µg/cm^2
- cumulative amount ([4]; under 48 hours, jell containing 10% terpineol (5% nalbuphine decanoate, 2% CMC Na)): 5.78±0.81 µ g/cm^2
- cumulative amount ([4]; under 72 hours, 5% nalbuphine decanoate in a jel of 2% CMC Na): 3.17±0.35 µ g/cm^2
- cumulative amount ([4]; under 72 hours, jell containing 10% terpineol (5% nalbuphine decanoate, 2% CMC Na)): 9.87±1.44 µg/cm^2
- analgesic effect for intramuscular injection (duration) ([2]; 0.): 1080 min
- half-life ([3]; […]): 26 h
- increase of duration compared with nalbuphine hydrochloride ([3]; rabbits, Figure 19): 30 times
- % Analgesic effect 10% (Sprague-Dawley rats; [6]): 8.2 D
- % Analgesic effect 20% (Sprague-Dawley rats; [6]): 7.5 D
- % Analgesic effect 50% (Sprague-Dawley rats; [6]): 6.7 D
- 10% analgesic effect (Sprague-Dawley rats; table 2, longest duration): 197 h
- 50% analgesic effect (Sprague-Dawley rats; table 2, longest duration): 161 h

Compound: CO[C@]12CC[C@@]3(C[C@@H]1[C@](C)(O)C(C)(C)C)[C@H]1Cc4ccc(O)c5c4[C@@]3(CCN1CC1CC1)[C@H]2O5 [buprenorphine]
- dose needed to elicit the same analgesic effect [1, 7]: 0.3 mg

Compound: Oc1ccc2c3c1O[C@H]1[C@@H](O)CC[C@@]4(O)[C@@H](C2)N(CC2CCC2)CC[C@]314 [nalbuphine]
- amount of released nalbuphine free base [5]: less in preparations with sesame oil than with peanut oil ester and the control

Compound: Oc1ccc2c(c1)[C@@]13CCCC[C@@]1(O)[C@@H](C2)N(CC1CCC1)CC3 [butorphanol]
- dose needed to elicit the same analgesic effect [1, 7]: 2 mg
